Some results are limits rather than exact numbers.

The subject of this experiment is PKC mediated IL-2 production. Put plainly: IL-2 ELISA, human primary T cell, anti CD3+CD28+. Format: cell-based. The note with it: Homo sapiens, T-cell, 24 h, human primary T cells stimulated with αCD3 and αCD28, 24 hours. In short, it runs like this:
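Human peripheral blood T cells, pre-expanded with αCD3/αCD28 and IL-2 and then washed free of IL-2, were pre-incubated with compound for 1 h at 37° C. They were then stimulated on plates coated with […] αCD3 and 5 μg/ml αCD28, or with 0.5 ng/ml PMA plus 0.1 uM ionomycin in the counter assay. IL-2 in supernatants was measured by ELISA after 24 h.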
On the technique in general: An ELISA detects its analyte on a solid surface through an enzyme-linked reagent.
For orientation: EC50 means the midpoint of the concentration-response curve. High values mean weaker potency, low ones greater potency. For `Cn1nnn(-c2cc(Nc3ncc(F)c(N[C@@H]4C[C@@H]5CCCN5C(C)(C)C4)n3)c(F)cc2OCC2CCOCC2)c1=O` [Compound 170, 1-(5-((4-(((7R,8aS)-5,5-dimethyloctahydroindolizin-7-yl)amino)-5-fluoropyrimidin-2-yl)amino)-4-fluoro-2-((tetrahydro-2H-pyran-4-yl)methoxy)phenyl)-4-methyl-1,4-dihydro-5H-tetrazol-5-one], the EC50 was in the range of 100 to 500 nM. On to `Cn1nnn(-c2cc(Nc3ncc(F)c(N[C@@H]4C[C@@H]5CCCN5C(C)(C)C4)n3)c(F)cc2OCC(=O)C(=O)O)c1=O` [Compound 171, 3-(4-((4-(((7R,8aS)-5,5-dimethyloctahydroindolizin-7-yl)amino)-5-fluoropyrimidin-2-yl)amino)-5-fluoro-2-(4-methyl-5-oxo-4,5-dihydro-1H-tetrazol-1-yl)phenoxy)-2-oxopropanoic acid], for which the concentration for a half-maximal effect (EC50) is above 10000 nM.

`COCCOc1ccc(Nc2ncc(F)c(N[C@@H]3C[C@@H]4CCCN4C(C)(C)C3)n2)cc1C#N` [Compound 172, 5-((4-(((7R,8aS)-5,5-dimethyloctahydroindolizin-7-yl)amino)-5-fluoropyrimidin-2-yl)amino)-2-(2-methoxyethoxy)benzonitrile] came in with a half-maximal effective concentration (EC50) of 100 to 500 nM. For `CC1(COc2ccc(Nc3ncc(F)c(N[C@@H]4C[C@@H]5CCCN5C(C)(C)C4)n3)cc2C#N)COC1` [Compound 173, 5-(4-((7R,8aS)-5,5-dimethyloctahydroindolizin-7-ylamino)-5-fluoropyrimidin-2-ylamino)-2-((3-methyloxetan-3-yl)methoxy)benzonitrile] the value was 100 to 500 nM; for `CC1(C)C[C@H](Nc2nc(Nc3ccc(OCC4(CO)COC4)c(C#N)c3)ncc2F)C[C@@H]2CCCN21` [Compound 174, 5-(4-((7R,8aS)-5,5-dimethyloctahydroindolizin-7-ylamino)-5-fluoropyrimidin-2-ylamino)-2-((3-(hydroxymethyl)oxetan-3-yl)methoxy)benzonitrile], 500 to 1000 nM. For `CC1(C)C[C@H](Nc2nc(Nc3ccc(OCC4COC4)c(C#N)c3)ncc2F)C[C@@H]2CCCN21` [Compound 175, 5-(4-((7R,8aS)-5,5-dimethyloctahydroindolizin-7-ylamino)-5-fluoropyrimidin-2-ylamino)-2-(oxetan-3-ylmethoxy)benzonitrile] the value was 500 to 1000 nM. The same measure for `CC1(C)C[C@H](Nc2nc(Nc3ccc(OCC4CCO4)c(C#N)c3)ncc2F)C[C@@H]2CCCN21` (stereo partly drawn) [Compound 176, 5-(4-((7R,8aS)-5,5-dimethyloctahydroindolizin-7-ylamino)-5-fluoropyrimidin-2-ylamino)-2-(oxetan-2-ylmethoxy)benzonitrile]: 100 to 500 nM; for `CC1(C)C[C@H](Nc2nc(Nc3ccc(OCC4COCCO4)c(C#N)c3)ncc2F)C[C@@H]2CCCN21` (stereo partly drawn) [Compound 177, 2-((1,4-dioxan-2-yl)methoxy)-5-(4-((7R,8aS)-5,5-dimethyloctahydroindolizin-7-ylamino)-5-fluoropyrimidin-2-ylamino)benzonitrile]: 100 to 500 nM.

`CC1(C)C[C@H](Nc2nc(Nc3ccc(OCC4CCOCC4)c(C#N)c3)ncc2F)C[C@@H]2CCCN21` [Compound 178, 5-(4-((7R,8aS)-5,5-dimethyloctahydroindolizin-7-ylamino)-5-fluoropyrimidin-2-ylamino)-2-((tetrahydro-2H-pyran-4-yl)methoxy)benzonitrile] came in with an EC50 of 100 to 500 nM. For the molecule `CC1(C)C[C@H](Nc2nc(Nc3ccc(OC4COC4)c(C#N)c3)ncc2F)C[C@@H]2CCCN21` [Compound 179, 5-(4-((7R,8aS)-5,5-dimethyloctahydroindolizin-7-ylamino)-5-fluoropyrimidin-2-ylamino)-2-(oxetan-3-yloxy)benzonitrile], the concentration for a half-maximal effect (EC50) is 100 to 500 nM. For `CC1(C)C[C@H](Nc2nc(Nc3ccc(Br)c(C#N)c3)ncc2F)C[C@@H]2CCCN21` [Compound 180, 2-bromo-5-((4-(((7R,8aS)-5,5-dimethyloctahydroindolizin-7-yl)amino)-5-fluoropyrimidin-2-yl)amino)benzonitrile] the value was 100 to 500 nM.

The values are drawn from patent US9682976B2, “Protein kinase C inhibitors and uses thereof” (Rigel Pharmaceuticals, Inc., priority 2012, dated 2017).
